From patent EP2608671B1, “COMPOUNDS FOR TREATMENT OF CANCER” (Gtx, Inc., priority 2010, dated 2012)
Like-named read-outs stand apart in the source and are kept apart here.

Experiments:
[1] = test system: NCI/ADR-RES; assay: SRB growth inhibition, P-gp over-expressing MDR line; assay type: cell-based, human; conditions: for IC50: Homo sapiens, NCI/ADR-RES, P-gp over-expressed MDR cell line, Table 5A, read-out: IC50 (nM), NCI/ADR-RES; for Resistance factor: NCI/ADR-RES vs OVCAR-8, 5760 min
[2] = test system: OVCAR-8; assay: SRB growth inhibition, MDR model parent line; assay type: cell-based, human
[3] = test system: DU 145; assay: cells; conditions: Homo sapiens, DU-145, 96 h
[4] = test system: WM-164; assay: SRB cell growth inhibition (cytotoxicity) assay; assay type: cell-based, human
[5] = test system: B16-F1; assay: SRB cell growth inhibition (cytotoxicity) assay; assay type: cell-based, mouse
Description: (§1) The only compounds which belong to the invention are the ones falling under the scope of formula (XI).

[6] = test system: PPC-1; assay: cells; conditions: Homo sapiens, PPC-1, 96 h, read-out: IC50 ± SEM (nM), PPC-1
[7] = test system: A375; assay: SRB cell growth inhibition (cytotoxicity) assay; assay type: cell-based, human
[8] = test system: Bovine brain tubulin; assay: In vitro tubulin polymerization assay; assay type: biochemical; conditions: 10 µM; for tubulin polymerization inhibited: 20 min incubation, compared to vehicle
Description: (§2) In Vitro Tubulin Polymerization Assay.
as §2
In vitro microtubule polymerization assay.

[9] = test system: PC-3; assay: cells
Description: as §1
Cells were stained with SRB solution.
Cells. […] Cells between the third and fifth passages were used for experiments.
Cell growth inhibition studies. […] Cells were stained with sulphorhodamine B (SRB) solution.

[10] = test system: melanoma cell lines (A375, WM-164, B16-F1) and prostate cancer cell lines (LNCaP, DU 145, PC-3, PPC-1); assay: SRB cytotoxicity, melanoma and prostate cell panel (averages); assay type: cell-based
Description: as §1

[11] = test system: LNCaP; assay: cells; conditions: Homo sapiens, 96 h, read-out: IC50 ± SEM (nM), LNCaP
[12] = test system: PC-3 prostate tumor xenograft; assay: In vivo antitumor efficacy, PC-3 xenograft; design: species or system mouse; conditions: for % T/C: Prostate (PC-3) xenograft, 21 days
Description: (§3) PC-3 and A375 tumor xenograft studies.
(§4) In vivo antitumor activity [tumor growth inhibition (% T/C), tumor growth delay (T-C value), and tumor cell kill (total log cell kill)].

[13] = test system: DU 145
[14] = test system: PPC-1
[15] = test system: LNCaP
[16] = test system: A375 human melanoma xenograft; assay: In vivo antitumor efficacy, A375 melanoma xenograft; design: species or system mouse; conditions: Melanoma (A375) xenograft, 15 mg/kg i.p.
Procedure: DTIC at 60 mg/kg was used as a positive control again.
as §3, §4

[17] = Homo sapiens, OVCAR-8, Table 5A, read-out: IC50 (nM), OVCAR-8
[18] = read-out: IC50 ± SEM (nM), DU 145
[19] = Mus musculus, B16-F1, read-out: IC50 ± SEM (nM), B16-F1
[20] = Homo sapiens, A-375, 96 h, read-out: IC50 ± SEM (nM), A375
[21] = Homo sapiens, PC-3, 96 h, read-out: IC50 ± SEM (nM), PC-3
[22] = Prostate cell, summary of Tables 2, 3, 21, read-out: IC50 range over tested melanoma and prostate cell lines
[23] = Table 6, read-out: IC50 ±SEM (nM), B16-F1
[24] = Table 6, read-out: IC50 ±SEM (nM), A375
[25] = read-out: IC50 ±SEM (nM), PC-3, Table 6
[26] = read-out: IC50 ±SEM (nM), DU 145, Table 6
[27] = read-out: IC50 ±SEM (nM), PPC-1, Table 6
[28] = read-out: IC50 ±SEM (nM), LNCaP, Table 6

SMILES: COc1cc(C(=NC#N)c2csc(-c3ccccc3)n2)cc(OC)c1OC [2j, N-((2-phenylthiazol-4-yl)(3,4,5-trimethoxyphenyl)methylene)cyanamide]
- IC50 [1]: 14 ± 1 nM
- Resistance factor [1]: 0.4
- IC50 [2, 17]: 34 ± 2 nM
- IC50 [3, 18]: 42 ± 2 nM
- IC50 ([4]; Homo sapiens, WM164, SRB assay, 96 h, Table 2, read-out: IC50 ± SEM (nM), WM-164): 27 ± 13 nM
- IC50 [5, 19]: 60 ± 21 nM
- IC50 [6]: 20 ± 1 nM
- IC50 [7, 20]: 28 ± 12 nM
- tubulin polymerization inhibited [8]: 64%
- IC50 [9, 21]: 27 ± 1 nM
- IC50 [10, 22]: 20 to 60 nM
- IC50 [11]: 23 ± 2 nM

SMILES: COc1cc(C(=O)c2csc(-c3ccc(O)cc3)n2)cc(OC)c1OC [2l, (2-(4-Hydroxyphenyl)thiazol-4-yl)(3,4,5-trimethoxyphenyl)methanone]
- Tumor volume at day 21 ([12]; PC-3, 50 mg/kg i.p., control 680 mm^3): 331 mm^3
- IC50 [3, 18]: 116 nM
- IC50 [5, 19]: 110 nM
- IC50 [6]: 76 nM
- IC50 [7, 20]: 100 nM
- inhibited tubulin polymerization ([8]; 15 min, Figure 28B): 55%
- IC50 [9, 21]: 87 nM
- IC50 [10, 22]: 76 to 116 nM
- IC50 [11]: 103 nM

SMILES: COc1cc(C(=O)c2csc(-c3ccc(C)cc3)n2)cc(OC)c1OC [2m]
- IC50 [5, 23]: 21 nM
- IC50 [7, 24]: 11 nM
- IC50 [9, 25]: 8.7 nM
- IC50 [13, 26]: 6.9 nM
- IC50 [14, 27]: 6.2 nM

SMILES: COc1cc(C(=O)c2csc(-c3cc(F)c(F)c(F)c3)n2)cc(OC)c1OC [2p]
- IC50 [5, 23]: 16600 nM
- IC50 [7, 24]: 2200 nM
- IC50 [9, 25]: 2380 nM
- IC50 [15, 28]: > 10000 nM
- IC50 [13, 26]: 1900 nM
- IC50 [14, 27]: 1080 nM

SMILES: COc1cc(C(=O)c2csc(-c3ccc(CC(N)=O)cc3)n2)cc(OC)c1OC [2q]
- IC50 [5, 23]: > 20000 nM
- IC50 [7, 24]: > 20000 nM
- IC50 [9, 25]: > 10000 nM
- IC50 [15, 28]: > 10000 nM
- IC50 [13, 26]: > 10000 nM
- IC50 [14, 27]: > 10000 nM

SMILES: COc1cc(C(=O)c2csc(Nc3ccccc3)n2)cc(OC)c1OC [5a, (2-(Phenylamino)thiazol-4-yl)(3,4,5-trimethoxyphenyl)methanone]
- IC50 [1]: 27 nM
- Resistance factor [1]: 0.6
- IC50 [2, 17]: 46 ± 6 nM
- IC50 [3, 18]: 70 ± 4 nM
- IC50 [5, 19]: 65 ± 12 nM
- IC50 [6]: 54 ± 1 nM
- IC50 [7, 20]: 45 ± 8 nM
- tubulin polymerization inhibited [8]: 78%
- IC50 [9, 21]: 57 ± 3 nM
- IC50 [11]: 51 ± 1 nM

SMILES: Cc1ccc(-c2nc(C(=O)c3ccc(F)cc3)c[nH]2)cc1 [12db, (4-fluorophenyl)(2-(p-tolyl)-1H-imidazol-4-yl)methanone]
- IC50 ([3]; read-out: IC50 ± SEM (nM) Du 145): 78 ± 5 nM
- IC50 [6]: 34 ± 1 nM
- IC50 ([7]; Homo sapiens, A-375, A375 melanoma cells, 48 h, SRB, read-out: IC50 ± SEM (nM) A375): 143 ± 13 nM
- inhibition of tubulin polymerization ([8]; 15 min, Figure 22): ~80%
- IC50 [9, 21]: 56 ± 3 nM
- IC50 [11]: 45 ± 2 nM

SMILES: O=C(c1ccc(F)cc1)c1c[nH]c(-c2ccc(O)cc2)n1 [12kb]
- IC50 ([4]; WM164 melanoma cells, 48 h, SRB, read-out: IC50 ± SEM (nM) WM164): > 10000 nM
- IC50 ([5]; B16-F1 melanoma cells, 48 h, SRB, read-out: IC50 ± SEM (nM) B16-F1): > 10000 nM
- IC50 ([9]; read-out: IC50 ± SEM (nM) PC-3, PC-3 prostate cancer cells, 96 h, SRB): > 10000 nM
- IC50 ([10]; ABI compounds, Tables 11-13, read-out: IC50 (average over cell lines)): 33000 nM
- IC50 ([15]; read-out: IC50 ± SEM (nM) LNCaP, LNCaP prostate cancer cells, 96 h, SRB): 10000 nM
- IC50 ([13]; read-out: IC50 ± SEM (nM) Du 145, Du 145 prostate cancer cells, 96 h, SRB): > 10000 nM
- IC50 ([14]; read-out: IC50 ± SEM (nM) PPC-1, PPC-1 prostate cancer cells, 96 h, SRB): > 10000 nM

SMILES: COc1cc(C(=O)c2csc(-c3ccc4[nH]ccc4c3)n2)cc(OC)c1OC [66a]
- IC50 [1]: 4 ± 2 nM
- Resistance factor [1]: 0.4
- IC50 [2, 17]: 10 ± 3 nM
- IC50 [3, 18]: 13 nM
- IC50 [5, 19]: 25 ± 13 nM
- IC50 [6]: 8 nM
- IC50 [7, 20]: 8 ± 1 nM
- tubulin polymerization inhibited [8]: 81%
- IC50 [9, 21]: 7 nM
- IC50 [10, 22]: 7 to 25 nM
- IC50 [11]: 10 nM

SMILES: COc1cc(C(=O)c2csc(-c3ccc(F)cc3)n2)cc(OC)c1OC [SMART-F]
- % T/C ([12]; 5 mg/kg i.p.): 21%
- % T/C ([12]; 15 mg/kg i.p.): 24%
- IC50 ([2]; Table 21, Ovarian, n = 3, read-out: IC50 ± SEM (nM) OVCAR-8): 34 ± 3 nM
- Median time to reach 600 mm^3. [16]: 29 days
- % T/C ([16]; 34 days): 28%
- Total log cell kill ([16]; doubling time 4.6 d): 0.7
- IC50 ([5]; Table 21, Melanoma, n = 3, read-out: IC50 ± SEM (nM) B16-F1): 43 ± 21 nM
- IC50 ([7]; Table 21, Melanoma, n = 3, read-out: IC50 ± SEM (nM) A375): 33 ± 14 nM
- IC50 ([9]; read-out: IC50 ± SEM (nM) PC-3, Table 21, Prostate, n = 3): 13 ± 1 nM
- IC50 ([15]; read-out: IC50 ± SEM (nM) LNCaP, Table 21, Prostate, n = 3): 6 ± 1 nM

SMILES: COc1cc(C(=O)c2csc(-c3ccccc3)n2)cc(OC)c1OCCN1C(=O)c2ccccc2C1=O [compound 20]
- IC50 [5, 23]: 42 nM
- IC50 [7, 24]: 38 nM
- IC50 [9, 25]: 73 nM
- IC50 [15, 28]: 65 nM
- IC50 [13, 26]: 121 nM
- IC50 [14, 27]: 73 nM
